US8088806B2 (Achillion Pharmaceuticals, Inc., priority 2005, dated 2012)

What follows are compounds tested on HCV replicon (assay: Replicon based assay of HCV replication inhibition (NPT ELISA)). Details: Hepatitis C virus, Huh-7, 72 h, Table I; Huh-7 HCV replicon-containing cells, three days; read-out: Activity.
Assay type: cell-based, Hepatitis C virus
In short: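 Huh-7 cells carrying a bicistronic HCV replicon (neo, EMCV-IRES-driven NS3–NS5B) treated overnight after seeding with usually 6 concentrations, 10 to 0.03 micromolar, for three days at 37° C without G418. Replication read as NPT level by captured ELISA; matched-DMSO wells and interferon alpha as controls.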
`Fc1ccc(-c2csc(Nc3ccc(Oc4ccccc4)cc3)n2)cc1` [compound 144, 4-(4-fluorophenyl)-N-(4-phenoxyphenyl)thiazol-2-amine] was tested, and the EC50 was less than 1000 nM. Work on `CCCCCc1ccc(Nc2nc(-c3ccc(Cl)c(Cl)c3)cs2)cc1` [compound 22, 4-(3,4-dichlorophenyl)-N-(4-pentylphenyl)thiazol-2-amine] yielded an EC50 of less than 1000 nM. With `COc1cccc2sc(Nc3nc(-c4cccnc4)cs3)nc12` [compound 207, 4-methoxy-N-(4-(pyridin-3-yl)thiazol-2-yl)benzo[d]thiazol-2-amine] the EC50 was 1000 to 10000 nM. Compound `CCCCCCCCOc1ccc(Nc2nc(-c3cccnc3)cs2)cc1` [compound 93, N-(4-(octyloxy)phenyl)-4-(pyridin-3-yl)thiazol-2-amine] has an EC50 of less than 1000 nM. For `CCOC(=O)C1CCN(Cc2cccc(Nc3nc(-c4cccnc4)cs3)c2)CC1` [compound 108, ethyl 1-(3-(4-(pyridin-3-yl)thiazol-2-ylamino)benzyl)piperidine-4-carboxylate], the EC50 was greater than 10000 nM. In the case of `c1ccc(Oc2ccc(Nc3nc(-c4cccnc4)cs3)cc2)cc1` [compound 141, N-(4-phenoxyphenyl)-4-(pyridin-3-yl)thiazol-2-amine], the EC50 is reported as less than 1000 nM. For `FC(F)(F)Oc1ccc(Nc2nc(-c3ccc(Cl)cc3)cs2)cc1` [compound 46, 4-(4-chlorophenyl)-N-(4-(trifluoromethoxy)phenyl)thiazol-2-amine], the EC50 was greater than 10000 nM. Compound `CCCCCOc1ccc(Nc2nc(C(=O)CBr)cs2)cc1C(F)(F)F` [compound 204, 1-(2-(3-(trifluoromethyl)-4-(pentyloxy)phenylamino)thiazol-4-yl)-2-bromoethanone] has an EC50 of less than 1000 nM. `Fc1ccc(-c2csc(Nc3ccc(Cl)c(C(F)(F)F)c3)n2)cc1` [compound 59, N-(4-chloro-3-(trifluoromethyl)phenyl)-4-(4-fluorophenyl)thiazol-2-amine] showed an EC50 of less than 1000 nM. Compound `CCCCCOc1ccc(Nc2nc(-c3ccc(F)cc3)cs2)cn1` [compound 63, N-(4-(4-fluorophenyl)thiazol-2-yl)-6-(pentyloxy)pyridin-3-amine] has an EC50 of less than 1000 nM. `CCCCCOc1ccc(NC(=O)c2nc(-c3cccnc3)cs2)cc1C(F)(F)F` [compound 112, N-(3-(trifluoromethyl)-4-(pentyloxy)phenyl)-4-(pyridin-3-yl)thiazole-2-carboxamide] gave an EC50 greater than 10000 nM. With `Fc1cc(Nc2nc(-c3cccnc3)cs2)ccc1OCC1CCCCC1` [compound 71, N-(4-(cyclohexylmethoxy)-3-fluorophenyl)-4-(pyridin-3-yl)thiazol-2-amine] the EC50 was less than 1000 nM.

Same assay, conditions: Hepatitis C virus, Huh-7, 72 h, Table III; Huh-7 HCV replicon-containing cells, three days; read-out: Activity
`CCCCCCC(C)Oc1ccc(Nc2nc(-c3ccc(N)nc3)cs2)cc1C(F)(F)F` (stereo not shown) [compound 677, 5-(2-(3-(trifluoromethyl)-4-(octan-2-yloxy)phenylamino)thiazol-4-yl)pyridin-2-amine] gave an EC50 of less than 1000 nM. With `FC(F)(F)c1cc(Nc2nc(-c3cccnc3)cs2)ccc1OCCCN1CCCC1` [compound 696, N-(4-(3-(pyrrolidin-1-yl)propoxy)-3-(trifluoromethyl)phenyl)-4-(pyridin-3-yl)thiazol-2-amine] the EC50 was 1000 to 10000 nM. With `CCCCCOc1ccc(Nc2nc(-c3cncc(C(=O)N(C)C)c3)cs2)cc1C(F)(F)F` [compound 647, 5-(2-(3-(trifluoromethyl)-4-(pentyloxy)phenylamino)thiazol-4-yl)-N,N-dimethylpyridine-3-carboxamide] the EC50 was less than 1000 nM. With `CCCCCCCCOc1ccc(Nc2nc(-c3ccc(OCC(=O)O)cc3)c(C)s2)cc1C(F)(F)F` [compound 586, 2-(4-(2-(3-(trifluoromethyl)-4-(octyloxy)phenylamino)-5-methylthiazol-4-yl)phenoxy)acetic acid] the EC50 was less than 1000 nM. Compound `CCCCCCCCOc1ccc(Nc2nc(-c3ccc(F)cc3)cs2)cc1C(F)(F)F` [compound 580, N-(3-(trifluoromethyl)-4-(octyloxy)phenyl)-4-(4-fluorophenyl)thiazol-2-amine] has an EC50 of less than 1000 nM. `CCCCCCCCOc1ccc(Nc2nc(-c3cnc(Cl)nc3)cs2)cc1C(F)(F)F` [compound 620, 4-(2-chloropyrimidin-5-yl)-N-(3-(trifluoromethyl)-4-(octyloxy)phenyl)thiazol-2-amine] was tested, and the EC50 was less than 1000 nM. `CCCCCOc1ccc(Nc2nc(/C=C/c3cccc(Cl)c3)cs2)cc1C(F)(F)F` [compound 542, 4-(3-chlorostyryl)-N-(3-(trifluoromethyl)-4-(pentyloxy)phenyl)thiazol-2-amine] showed an EC50 of less than 1000 nM. With `O=C1OCc2cc(-c3csc(Nc4ccc(OCC5CCCCC5)c(F)c4)n3)ccc21` [compound 718, 5-(2-(4-(cyclohexylmethoxy)-3-fluorophenylamino)thiazol-4-yl)isobenzofuran-1(3H)-one] the EC50 was 1000 to 10000 nM. Work on `CCCCCCCCOc1ccc(Nc2nccs2)cc1` [compound 623, N-(4-(octyloxy)phenyl)thiazol-2-amine] yielded an EC50 of less than 1000 nM.

Same assay, conditions: Hepatitis C virus, replicon based assay of HCV replication inhibition; Table II; read-out: Activity
`CCCCCOc1ccc(Nc2nc(CN3CCC(N(C)C(=O)OC(C)(C)C)C3)cs2)cc1F` (stereo not shown) [compound 280, tert-butyl 1-((2-(3-fluoro-4-(pentyloxy)phenylamino)thia-zol-4-yl)m,ethyl)pyrrolidin-3-yl(methyl)carbamate] showed an EC50 of 1000 to 10000 nM. For `CCCCCCCc1ccc(Nc2nc(Cc3ccccc3)cs2)cc1` [compound 515, 4-benzyl-N-(4-heptylphenyl)thiazol-2-amine], the EC50 was greater than 10000 nM. `CCCCCOc1ccc(Nc2nc(-c3cc4ccccc4o3)cs2)cc1F` [compound 419, 4-(benzofuran-2-yl)-N-(3-fluoro-4-(pentyloxy)phenyl)thiazol-2-amine] showed an EC50 of 1000 to 10000 nM. With `CCCCCCCCOc1ccc(Nc2nc(Cc3cccc(F)c3)cs2)cc1` [compound 516, 4-(3-fluorobenzyl)-N-(4-(octyloxy)phenyl)thiazol-2-amine] the EC50 was greater than 10000 nM. With `CCCCCCCCOc1ccc(Nc2nc(C3=NC(=O)NC3)cs2)cc1` [compound 331, 4-(2-(4-(octyloxy)phenylamino)thia-zol-4-yl)-1H-imidazol-2(5H)-one] the EC50 was 1000 to 10000 nM. `CCCCCOc1ccc(Nc2nc(CNc3ccc(Cl)c(Cl)c3)cs2)cc1C(F)(F)F` [compound 261] gave an EC50 of 1000 to 10000 nM. `CCCCCOc1ccc(Nc2nc(C(=O)Nc3ccncc3)cs2)cc1C(F)(F)F` [compound 232, 2-(4-(pentyloxy)-3-(trifluoromethyl)phenyl-amino)-N-(pyridin-4-yl)thiazole-4-carboxamide] was tested, and the EC50 was 1000 to 10000 nM. Work on `CCCCCOc1ccc(Nc2nc(-c3cc(OC)ccc3OC)cs2)cc1F` [compound 433, N-(3-fluoro-4-(pentyloxy)phenyl)-4-(2,5-dimethoxyphenyl)thiazol-2-amine] yielded an EC50 of less than 1000 nM. Work on `CCCCCOc1ccc(Nc2nc(CN3CCCC(C(=O)O)C3)cs2)cc1C(F)(F)F` (stereo not shown) [compound 275, 1-((2-(4-(pentyloxy)-3-(trifluoromethyl)phenyl-amino)thiazol-4-yl)methyl)piperidin-3-carboxylic acid] yielded an EC50 of less than 1000 nM. `Fc1ccc(-c2csc(Nc3ccc(OCC4CC4)c(C(F)(F)F)c3)n2)cc1` [compound 243, N-(4-(cyclopropylmethoxy)-3-(trifluoromethyl)phenyl)-4-(4-fluorophenyl)thiazol-2-amine] gave an EC50 of less than 1000 nM. `CCCCCOc1ccc(Nc2nc(-c3ccccn3)cs2)cc1C(F)(F)F` [compound 409, N-(3-(trifluoromethyl)-4-(pentyloxy)phenyl)-4-(pyridin-2-yl)thiazol-2-amine] was tested, and the EC50 was less than 1000 nM. With `CCCCCCCCOc1ccc(Nc2nc(-c3ccc(F)cc3)cs2)cc1` [compound 328, 4-(4-fluorophenyl)-N-(4-(octyloxy)phenyl)thiazol-2-amine] the EC50 was less than 1000 nM. `CCCCCOc1ccc(Nc2nc(-c3cc(OC)ccc3OC)cs2)cc1C(F)(F)F` [compound 431, N-(3-(trifluoromethyl)-4-(pentyloxy)phenyl)-4-(2,5-dimethoxyphenyl)thiazol-2-amine] was tested, and the EC50 was 1000 to 10000 nM. With `CCCCCCCCN(C)c1ccc(Nc2nc(Cc3cccc(F)c3)cs2)cc1C(F)(F)F` [compound 518, N^4-(4-(3-fluorobenzyl)thiazol-2-yl)-2-(trifluoromethyl)-N^1-methyl-N^1-octylbenzene-1,4-diamine] the EC50 was 1000 to 10000 nM.

Same assay, conditions: Hepatitis C virus, replicon based assay of HCV replication inhibition; Table IV; read-out: Activity
Compound `c1cncc(-c2csc(Nc3ccc4c(c3)OCCO4)n2)c1` [compound 737, N-(2,3-dihydrobenzo[b][1,4]dioxin-6-yl)-4-(pyridin-3-yl)thiazol-2-amine] has an EC50 greater than 10000 nM. `NC(=O)c1cccc(Nc2nc(-c3cccnc3)cs2)c1` [compound 876, 3-(4-(pyridin-3-yl)thiazol-2-ylamino)benzamide] was tested, and the EC50 was greater than 10000 nM. `O=S1(=O)CCN(Cc2ccc(Nc3nc(-c4cccnc4)cs3)cc2)CC1` [compound 792] gave an EC50 greater than 10000 nM. `CCCCCCCCOc1ccc(Nc2nc(-c3ccc(O)nc3)cs2)cc1C(F)(F)F` [compound 733, 5-(2-(3-(trifluoromethyl)-4-(octyloxy)phenylamino)thiazol-4-yl)pyridin-2-ol] gave an EC50 of less than 1000 nM. Compound `CCCCCCCCOc1ccc(Nc2nc(-c3cnc(NC(C)=O)[nH]3)cs2)cc1C(F)(F)F` [compound 865, N-(5-(2-(3-(trifluoromethyl)-4-(octyloxy)phenylamino)thiazol-4-yl)-1H-imidazol-2-yl)acetamide] has an EC50 of less than 1000 nM. `CC(C)CCCOc1ccc(Nc2nc(-c3cccnc3)cs2)cc1C(F)(F)F` [compound 824, N-(4-(4-methylpentyloxy)-3-(trifluoromethyl)phenyl)-4-(pyridin-3-yl)thiazol-2-amine] gave an EC50 of less than 1000 nM. `Cc1ccc(Nc2nc(-c3cccnc3)cs2)cc1C(F)(F)F` [compound 879, N-(3-(trifluoromethyl)-4-methylphenyl)-4-(pyridin-3-yl)thiazol-2-amine] gave an EC50 of less than 1000 nM.

Same assay, conditions: replicon based assay of HCV replication inhibition; Table II; read-out: Activity
Work on `CCCCCCCCOc1ccc(Nc2nc(-c3ccc(C(=O)N(C)C)nc3)cs2)cn1` [compound 471, 5-(2-(6-(octyloxy)pyridin-3-ylamino)thiazol-4-yl)-N,N-dimethylpyridine-2-carboxamide] yielded an EC50 of less than 1000 nM.
